# Test results as given in US20160106439A1, “PNEUMATIC TOURNIQUET” (BIONUMERIK PHARMACEUTICALS, INC., priority 2013, published 2016).
# pIC50: −log10 of the molar value. Read-outs that look alike come from different tables or passages of the source.
# What was measured:
# [1] = biological target: ROS1 kinase (Homo sapiens, UniProt P08922); experiment: ROS1 kinase assays; type: biochemical; parameters: Recombinant human ROS1 kinase (residues 1883-2347), containing an N-terminal GST tag; purchased SignalChem; host or cells: Sf9 insect cells (baculovirus)
# ROS1 kinase, sequence (P08922 1883-2347): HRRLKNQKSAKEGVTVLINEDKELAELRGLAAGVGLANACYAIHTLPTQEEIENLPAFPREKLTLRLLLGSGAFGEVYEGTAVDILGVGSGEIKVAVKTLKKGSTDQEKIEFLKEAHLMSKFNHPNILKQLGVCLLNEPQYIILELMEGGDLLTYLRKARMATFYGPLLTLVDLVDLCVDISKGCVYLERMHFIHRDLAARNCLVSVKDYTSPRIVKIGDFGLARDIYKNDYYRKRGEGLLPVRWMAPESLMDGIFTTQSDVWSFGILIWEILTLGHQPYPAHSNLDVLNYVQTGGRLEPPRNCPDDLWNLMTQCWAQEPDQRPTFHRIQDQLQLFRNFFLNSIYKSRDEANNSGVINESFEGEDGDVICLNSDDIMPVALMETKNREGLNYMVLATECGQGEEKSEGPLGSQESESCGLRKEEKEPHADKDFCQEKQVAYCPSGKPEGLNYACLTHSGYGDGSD
# [2] = biological target: T790M EGFR kinase (Homo sapiens, UniProt P00533, T790M); experiment: T790M EGFR kinase assay (ADP-glo); type: biochemical
# T790M EGFR kinase, sequence (P00533 25-1210 T790M): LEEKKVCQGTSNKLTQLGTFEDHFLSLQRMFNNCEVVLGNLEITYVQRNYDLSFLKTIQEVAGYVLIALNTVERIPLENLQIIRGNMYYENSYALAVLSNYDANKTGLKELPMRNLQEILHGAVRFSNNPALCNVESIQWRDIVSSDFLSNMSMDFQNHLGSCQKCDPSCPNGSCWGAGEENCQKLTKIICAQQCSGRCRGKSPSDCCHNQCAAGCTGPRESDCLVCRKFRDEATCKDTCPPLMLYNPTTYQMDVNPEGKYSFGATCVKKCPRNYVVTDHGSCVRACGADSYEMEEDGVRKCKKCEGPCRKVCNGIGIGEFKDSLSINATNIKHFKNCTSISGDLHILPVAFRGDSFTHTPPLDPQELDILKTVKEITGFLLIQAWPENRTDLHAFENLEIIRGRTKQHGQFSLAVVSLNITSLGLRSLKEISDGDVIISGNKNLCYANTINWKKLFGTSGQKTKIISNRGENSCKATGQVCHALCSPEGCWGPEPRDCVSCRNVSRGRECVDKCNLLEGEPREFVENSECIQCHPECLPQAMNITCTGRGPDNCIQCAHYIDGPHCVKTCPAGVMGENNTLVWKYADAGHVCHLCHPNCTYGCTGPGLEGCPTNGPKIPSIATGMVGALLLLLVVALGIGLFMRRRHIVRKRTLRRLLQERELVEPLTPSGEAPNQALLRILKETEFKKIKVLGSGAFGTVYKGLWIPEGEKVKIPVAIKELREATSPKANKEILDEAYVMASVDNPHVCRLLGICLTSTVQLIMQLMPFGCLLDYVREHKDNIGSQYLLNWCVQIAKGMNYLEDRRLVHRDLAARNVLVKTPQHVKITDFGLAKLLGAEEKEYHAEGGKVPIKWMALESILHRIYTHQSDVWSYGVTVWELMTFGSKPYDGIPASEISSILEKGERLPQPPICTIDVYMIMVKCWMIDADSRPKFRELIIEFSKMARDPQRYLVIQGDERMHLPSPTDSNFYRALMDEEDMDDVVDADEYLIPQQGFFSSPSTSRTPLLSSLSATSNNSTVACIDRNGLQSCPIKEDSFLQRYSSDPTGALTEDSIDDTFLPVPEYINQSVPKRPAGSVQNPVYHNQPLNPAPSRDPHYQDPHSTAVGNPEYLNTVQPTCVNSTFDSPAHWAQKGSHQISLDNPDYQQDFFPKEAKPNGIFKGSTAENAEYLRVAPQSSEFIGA
# [3] = tested on: Stage IV primary adenocarcinoma of the lung; experiment: Tavocept Phase III Clinical Trial (Interim Analysis); type: in vivo, patients
# Excerpt: In the Tavocept Phase III Clinical Trial pre-specification was made through stratification factors including sex (i.e., male versus female) and taxane treatment (i.e., paclitaxel versus docetaxel). Eligible patients had not received prior drug treatment for their cancer, and inclusion in the trial was also allowed for patients who had relapsed following surgery for earlier stage disease as well as patients with central nervous system metastasis. A total of 540 patients were enrolled on the trial.
# The primary endpoint of this study was overall survival (OS); defined as the time period from the date of patient randomization to the date of death due to any cause.
# All patients received standard combination chemotherapy (taxane agent plus cisplatin) and either Tavocept or placebo.
# The primary endpoint for analysis was the duration of overall survival, defined as the time from the date of randomization to the date of death due to any cause. The number of mortality events used for the final analysis depended upon the number of patients enrolled into the study (provided the sample size was adjusted at the interim analysis). For the primary analysis, the expected number of total mortality events was approximately 416 mortality events for a sample size of 575 patients.
# The one-sided log-rank test was performed in order to allow the application of the adaptive methodology. Details of this 2-stage adaptive design are described below. Kaplan-Meier survival curves (including identification of censored observations) was presented by treatment group, as well as median survival times and their 95% confidence intervals.
# The following specific endpoints were evaluated with pre-specified analyses in order to evaluate for potential clinically and statistically significant differences between Tavocept- and placebo-treated patients.
# The incidence of cisplatin renal toxicity and anemia, and the impact of emesis on daily life were analyzed using the Cochran-Mantel-Haenszel (CMH) tests for proportions. The CMH test was applied in the comparison between Tavocept and placebo where adjustment for prognostic factors is clinically important (e.g., adjusting for baseline characteristics). To control for Type I error due to multiple comparisons of safety data, a nominal, 2-sided p-value of less than 0.0125 was used for each comparison of renal toxicity, anemia, and emesis.
# [4] = biological target: T1, E13K, D16K, E95K, E103K Thioredoxin (Homo sapiens, UniProt P10599, D16K/E103K/E13K/E95K); experiment: X-ray crystallography of Tavocept-derived mesna adduct on Trx; type: binding; details: 40 mM Tavocept
# T1 construct: made in house; host or cells: E. coli BL21(DE3), pET-15b system
# T1 sequence (P10599 1-105 E13K/D16K/E95K/E103K): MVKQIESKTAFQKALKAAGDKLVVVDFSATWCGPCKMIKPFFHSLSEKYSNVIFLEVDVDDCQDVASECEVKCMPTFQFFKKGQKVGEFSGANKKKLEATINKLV
# Experimental: Adduct was prepared as described above with some modifications designed to increase the likelihood of success in crystallization of the protein. […] This reaction was incubated for 1 hour at 30° C. followed by overnight incubation at 4° C. […] Aliquots of this solution were analyzed by ESI LC-MS to confirm the presence of adduct(s) prior to initiation of crystallization experiments.
# These initial broad screens produced crystals under a wide range of conditions (data not shown) and the screens used included: (i) PEGION, CRYSTALS HT, and PEGRX (Hampton Research) and (ii) JCSG and BASIC (JENA Biosciences). Multiple rounds of optimization were completed and included fine screens, varying the protein concentration and varying the protein to reservoir ratios to obtain diffraction quality crystals. In the Trx pH 9.0/8.5 structure (adduct formed at pH 9.0, crystals grown at pH 8.5), the best crystals were obtained in 20% ethanol, 0.1 M Tris (at 60 mg/mL Trx protein) and diffracted to 2.5 Å (C2 space group). In Trx pH 9.0/7.0 (adduct formed at pH 9.0, crystals grown at pH 7.0), the best crystals were obtained in 20% PEG3350, 0.2 M KCl (60 mg/mL Trx protein) and diffracted to 2.8 Å (C2 space group). In Trx pH 7.0/7.0 (adduct formed at pH 7.0, crystals grown at pH 7.0), the best crystals were obtained in 28% PEG3350, 0.2M KCl (160 mg/mL Trx protein) and diffracted to 1.85 Å resolution (P21 space group).
# The solution obtained was consistent with four molecules in the crystal asymmetric unit. […] Molecules C and D were substantially rebuilt and the Tavocept-derived mesna adduct added after protein rebuilding was complete. The structure solution was supported by contiguous electron density for the entire chain trace of each molecule, landmark side chain density features matching the amino acid sequence including cysteines, absence of phi-psi violations, and final R/Rfree values in the normal range. […] For the Trx pH 9.0/8.5 structure, residual density observed near Cys69 of molecule A was modeled as a Tavocept-derived mesna adduct in a dual conformation. […]
# [5] = Female Non-Smokers receiving paclitaxel and cisplatin
# [6] = Females receiving paclitaxel and cisplatin
# [7] = Male & Female Non-Smokers receiving paclitaxel and cisplatin
smiles,measurement,setting,value
"O=S(=O)([O-])CCSSCCS(=O)(=O)[O-].[Na+].[Na+] [Tavocept, disodium 2,2′-dithio-bis-ethane sulfonate]",Inhibition of ROS1 kinase,[1],directly inhibit ROS1 kinase in a time-dependent manner
same,Effect on Crizotinib inhibition of ROS1 kinase,[1]; Tavocept incubated with ROS1 kinase prior to initiation of the kinase assays,potentiation of Crizotinib inhibition
same,Modification of ROS1 kinase,[1]; time dependent,BNP7787 xenobiotically modifies ROS1 kinase in
same,potentiation of Erlotinib inhibition of T790M EGFR kinase,[2]; 10 μM ATP,strongly potentiated
same,pIC50,"[2]; 10 μM ATP, read-out: IC50 on T790M EGFR kinase activity",< 1.40
same,inhibition of T790M EGFR kinase,"[2]; 10 μM or 100 μM ATP, physiological concentrations (<20 mM)",did not notably inhibit
same,pIC50,"[2]; 100 μM ATP, read-out: IC50 on T790M EGFR kinase activity",< 1.40
same,pIC50,[2]; read-out: IC50 on T790M EGFR kinase,< 1.40
same,Median survival,[3]; [5],27.0 months
same,Median survival advantage vs placebo,[3]; [5],13.6 months
same,Median survival,[3]; [6],25.0 months
same,Median survival advantage vs placebo,[3]; [6],11.8 months
same,Median survival,[3]; [7],25.2 months
same,Median survival advantage vs placebo,[3]; [7],12 months
same,Median survival advantage vs placebo,[3]; PS 1 ECOG Performance Status subjects,2.82 months
same,Median survival advantage vs placebo,[3]; PS 1 ECOG females receiving paclitaxel and cisplatin,11.1 months
same,Median survival advantage vs placebo,[3]; PS 1 ECOG males and females receiving paclitaxel and cisplatin,4.0 months
same,Median survival,[3]; Stage IV M1b subjects,11.33 months
same,2-year survival,[3]; all females receiving paclitaxel and cisplatin,51%
same,2-year survival,[3]; all subjects receiving paclitaxel and cisplatin,30%
same,Overall median survival advantage vs placebo,"[3]; all subjects, paclitaxel or docetaxel plus cisplatin, P=0.723",greater than 2 month
same,Protection against chemotherapy-induced kidney toxicity,"[3]; compared to placebo, P=0.0528",improvement in the relative creatine decrease from baseline
same,Anemia,[3]; compared to the placebo arm,reduced anemia
same,2-year survival,[3]; female non-smokers receiving paclitaxel and cisplatin,72.4%
same,Median survival advantage vs placebo,[3]; female subjects >=65 years receiving paclitaxel and cisplatin,2.1 months
same,Median survival,"[3]; female subjects receiving paclitaxel plus cisplatin, Newly Diagnosed",25.0 months
same,Median survival,"[3]; female subjects receiving paclitaxel plus cisplatin, no subsequent therapy",14.2 months
same,Survival vs placebo,"[3]; female subjects with CNS Metastases, paclitaxel plus cisplatin, P=0.0343",Survival advantage in favor of Tavocept
same,2-year survival,[3]; male and female non-smokers receiving paclitaxel and cisplatin,63%
same,Median survival advantage vs placebo,[3]; male and female subjects >=65 years receiving paclitaxel and cisplatin,3.5 months
same,Median survival,"[3]; male and female subjects receiving paclitaxel plus cisplatin, Newly Diagnosed",15.3 months
same,Median survival,"[3]; male and female subjects receiving paclitaxel plus cisplatin, no subsequent therapy",10.0 months
same,"Median period of additional survival after starting new chemotherapy, longer than placebo","[3]; patients previously receiving Tavocept, paclitaxel and cisplatin",3.4 months
same,Median overall survival from randomization,"[3]; patients receiving post-study new chemotherapy, paclitaxel and cisplatin",23.0 months
same,Median survival,[3]; subjects Newly Diagnosed at enrollment,14.19 months
same,Median survival advantage vs placebo,[3]; subjects greater than or equal to 65 years of age,3 months
same,Median survival,[3]; subjects who received paclitaxel and cisplatin,15.4 months
same,Median survival advantage vs placebo,[3]; subjects who received paclitaxel and cisplatin instead of docetaxel and cisplatin,3.68 months
same,Median survival,[3]; subjects with CNS Metastases present,11.76 months
same,"Overall survival, patients receiving post study therapy",[3]; vs 9.2 months placebo,12.2 months
same,Tavocept-derived mesna adduct sites on Trx,[4]; Trx pH 7.0/7.0 structure,clearly visible on Cys69 in both molecules A and B
same,Tavocept-derived mesna adduct sites on Trx,[4]; Trx pH 9.0/7.0 structure,clearly visible on both Cys69 and Cys62 in both molecules A and B
same,Tavocept-derived mesna adduct sites on Trx,[4]; Trx pH 9.0/8.5 structure,clearly visible on Cys69 in both molecules A and B
